Measured values from PubChem BioAssay (NCI).
Values joined by “and” are separate entries in the source; they are usually repeats but may differ in a detail not shown here. Equal entries are not always repeated.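 Where inhibition never reached the appropriate level, the endpoint shown equals the highest concentration tested. Otherwise, values were interpolated linearly from a five-concentration, 48-hour dose response in 96-well plates. GI50 is the concentration that inhibits growth by half. Definition used: TGI = concentration required for complete inhibition of growth.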

Legend:
Assay in all cases: growth of human tumour cells (NCI), 48 h
NCI-H226 lung = test system: NCI-H226 lung
SK-MEL-5 melanoma = test system: SK-MEL-5 melanoma
A498 renal = test system: A498 renal
SF-268 CNS = test system: SF-268 CNS
HOP-92 NSCLC = test system: HOP-92 NSCLC
OVCAR-8 ovarian = test system: OVCAR-8 ovarian
HCT-116 colon = test system: HCT-116 colon
CAKI-1 renal = test system: CAKI-1 renal
MCF7 breast = test system: MCF7 breast
HCT-15 colon = test system: HCT-15 colon

SMILES	GI50 (NCI-H226 lung)	TGI (NCI-H226 lung) [µM]	GI50 (SK-MEL-5 melanoma)	TGI (SK-MEL-5 melanoma)	GI50 (A498 renal)	TGI (A498 renal)	GI50 (SF-268 CNS)	TGI (SF-268 CNS) [µM]	GI50 (HOP-92 NSCLC)	TGI (HOP-92 NSCLC)	GI50 (OVCAR-8 ovarian)	TGI (OVCAR-8 ovarian)	GI50 (HCT-116 colon)	TGI (HCT-116 colon) [µM]	GI50 (CAKI-1 renal)	TGI (CAKI-1 renal) [µM]	GI50 (MCF7 breast)	TGI (MCF7 breast)	GI50 (HCT-15 colon)	TGI (HCT-15 colon) [µM]
COc1ccccc1/C=N\N=C(N/N=C/c1ccccc1OC)N/N=C/c1ccccc1OC	4.08 µM	> 100	1.77 µM	3.23 µM	2.73 µM	9.92 µM	3.69 µM	> 100	1.92 µM	5.34 µM	3.23 µM	14.5 µM	3.04 µM	11.3	2.08 µM	6.19	3.02 µM	23.5 µM	3.27 µM	18.3
O=C(c1ccco1)c1c(C(F)(F)F)n([O-])c2ccccc2[n+]1=O	0.665 µM	4.31	0.999 µM	3.68 µM	1.57 µM	8.27 µM	0.515 µM	2.56	0.144 µM	0.986 µM	1.23 µM	22.5 µM	0.434 µM	8.52	1.13 µM	3.94	0.458 µM	7.36 µM	0.785 µM	3.85
O=Nc1ccc2ccccc2c1O	12.4 µM	29.1	2.71 µM	8.41 µM	14.3 µM	28.2 µM	3.97 µM	13.3	13.4 µM	27.3 µM	2.67 µM	6.63 µM	2.6 µM	7.36	3.14 µM	19.3	3.17 µM	12.5 µM	10.2 µM	30.8
COc1ccc2c(c1)C(c1ccccc1Cl)=Nc1c(n[nH]c1C)N2	3.28 µM	> 25	> 25 µM	> 25 µM	1.88 µM	> 25 µM	12.5 µM	> 25	> 25 µM	> 25 µM	> 25 µM	> 25 µM	11.2 µM	> 25	> 8.82 µM	> 25	13.7 µM	> 25 µM	14 µM	> 25
COC(=O)[C@]12CC[C@@H](C)[C@H](C)[C@@H]1C1=CC[C@@H]3[C@@]4(C)C=C(O)C(=O)[C@@]5(C)COC(=C54)C[C@@]3(C)[C@]1(C)CC2	15.1 µM	41.3	4.25 µM	15.3 µM	15.2 µM	32.5 µM	13.3 µM	31.6	14 µM	28.9 µM	12.9 µM	47 µM	9.49 µM	22.9	9.36 µM	26.7	3.45 µM	12.3 µM	11.6 µM	26.6
Cc1cc(Nc2ncnc3ccc(NC4=NC(C)(C)CO4)cc23)ccc1Oc1ccn2ncnc2c1	16.6 µM and > 10 µM	> 90.2	9.59 µM and 9.83 µM	22.3 µM and > 10 µM	4.1 µM and > 10 µM	24.8 µM and > 10 µM	18.9 µM and > 10 µM	> 91.9	3.69 µM and 4.24 µM	26.9 µM and > 10 µM	8.75 µM and > 10 µM	55.1 µM and > 10 µM	21.1 µM and > 10 µM	> 80.1	6.3 µM and > 10 µM	> 61.1	13.7 µM and > 10 µM	31.5 µM and > 10 µM	8.92 µM and > 10 µM	> 65.9
C/C(=N\N=C(/[Se])N1CC2CCC(CC2)C1)c1ccccn1	–	1.88	–	0.433 µM	–	1.31 µM	–	5.43	–	1.18 µM	–	2.34 µM	–	0.878	–	1.95	–	2.8 µM	–	2.06
COc1cc(/C=C2\CCC(CN(C)C)C2=O)ccc1OC(=O)c1ccccc1 (configuration not stated)	–	33.8	–	29.3 µM	–	33.1 µM	–	27.5	–	32.6 µM	–	22 µM	–	22.1	–	32.5	–	21 µM	–	20.4
N#CC1=C(N)NC(=O)NC12Nc1ccccc1S2 (configuration not stated)	14.4 µM	36.9	17.5 µM	33.2 µM	16.5 µM	36.8 µM	23.6 µM	70.8	91.3 µM	> 100 µM	6.07 µM	> 37.8 µM	18.5 µM	44	30.1 µM	> 72.6	24.6 µM	> 73.5 µM	26.7 µM	87
Cn1cc(-c2cnc3ccc4ccc(CS(=O)(=O)NCc5ccccn5)cc4c(=O)c3c2)cn1	14.8 µM	36	11.3 µM	24 µM	18.1 µM	> 55.6 µM	20.9 µM	> 100	6.19 µM	> 77.3 µM	18.8 µM	> 100 µM	16.3 µM	54.1	14.2 µM	> 100	7.7 µM	> 100 µM	5.67 µM	37.1
C=CC(=O)N[C@H]1CCOC[C@H]1Nc1ncc2cc(-c3c(Cl)c(OC)cc(OC)c3Cl)ccc2n1	10.7 µM	87.2	7.06 µM	20.9 µM	3.36 µM	33.7 µM	16.2 µM	> 100	5.38 µM	51.3 µM	39.3 µM	> 100 µM	12.7 µM	57.2	12.5 µM	> 100	5.65 µM	51 µM	7.89 µM	84.4
COc1cccc2c1C(=O)c1c(O)c3c(c(O)c1C2=O)C[C@@](O)(C(=O)CO)C[C@@H]3OC1C[C@H](N)[C@H](O)[C@H](C)O1 (some centres not stated)	0.0201 µM	0.102	0.0368 µM	0.104 µM	0.0482 µM	0.146 µM	0.0616 µM	0.982	0.0236 µM	0.233 µM	0.067 µM	> 16.2 µM	0.036 µM	0.212	–	4.18	0.00926 µM	4.15 µM	0.906 µM	> 50
Cc1ccc(SC2=CC(=O)c3nc4ccccc4c4ccnc2c34)cc1	> 61.9 µM	> 100	29.1 µM	> 66.8 µM	> 100 µM	> 100 µM	29.7 µM	> 70.7	20 µM	38.2 µM	18 µM	41.2 µM	22.7 µM	> 56.8	25.5 µM	63.8	26.8 µM	> 68.6 µM	18.4 µM	40.6
NC1=NC(c2ccc(Cl)cc2)C2=C(N1)/C(=C/c1ccc(Cl)cc1)CCC2 (configuration not stated)	4.25 µM	11.8	5.51 µM	12.9 µM	2.67 µM	12.6 µM	7.35 µM	> 38.9	14.2 µM	40.5 µM	4.24 µM	> 32.4 µM	1.67 µM	3.22	13.6 µM	> 96.7	3.62 µM	> 100 µM	9.13 µM	26.9
Cc1cc(=O)oc2cc(OCc3c(F)cccc3Cl)ccc12	–	> 100	–	> 100 µM	–	> 100 µM	–	> 100	–	33.2 µM	–	> 100 µM	–	> 100	–	> 100	–	> 100 µM	–	–
CCN1c2ccccc2C(Cl)(c2ccc(N(C)C)cc2)c2ccccc21	14.6 µM	34.5	3.76 µM	15 µM	59.6 µM	> 100 µM	5.61 µM	19.3	2.84 µM	17 µM	–	–	2.66 µM	10.3	14.5 µM	49.4	10.3 µM	30.5 µM	11.9 µM	49.4
O=C(Nc1ccc(Cl)cc1)c1cc(-c2ccc(Cl)cc2)c2sc(=O)[nH]c2n1	2.26 µM	9.18	0.687 µM	2.99 µM	0.472 µM	3.42 µM	2.56 µM	22.3	0.526 µM	3.94 µM	2.04 µM	12.8 µM	2.4 µM	10.8	1.95 µM	13.1	1.78 µM	9.26 µM	1.27 µM	9.54
CSc1ccc2c3c(n(C[C@H](O)CO)c(=O)c2c1)-c1ccccc1C3=O	1.86 µM	5.31	1.75 µM	3.76 µM	2.57 µM	12.6 µM	4.64 µM	> 100	12.9 µM	93.9 µM	2.21 µM	20.9 µM	0.742 µM	2.35	1.11 µM	5.74	0.423 µM	11 µM	–	–
CN1CCN(Cc2ccc(NC(=O)c3ccc(C#Cc4c(N)ncc5ccc(F)cc45)cc3)cc2C(F)(F)F)CC1	1.07 µM	2.6	0.871 µM	1.58 µM	1.79 µM	9.71 µM	0.948 µM	2.14	0.705 µM	1.45 µM	0.955 µM	1.81 µM	–	–	1.97 µM	7.55	0.837 µM	1.59 µM	0.892 µM	1.74
